Measured values taken from patent US8058417B2, “Biosynthetic pathway and genes required for tropodithietic acid biosynthesis in silicibacter TM1040” (priority 2006, dated 2011).
≈ marks a conversion by molar mass, not a printed value.

Columns and labels:
V. anguillarium [1] = assay: Swimming (motility) of V. anguillarium exposed to TDA; type: cell-based, Vibrio anguillarium; conditions: exposed to 5 ug TDA per ml (ca. 3x MIC)
From the text: It is unlikely that the mechanism of action of TDS involves inhibition of protein, DNA or RNA synthesis, transcription, or translation, all of which would require more time to inhibit.

V. anguillarium [2] = assay: Regrowth of V. anguillarium in fresh nutrient broth after TDA exposure (bactericidal test); type: cell-based, Vibrio anguillarium; conditions: 5 ug per ml (3x MIC) for 90 minutes, FIG. 13
Description: FIG. 13 is a graph showing the bactericidal character of TDA against Vibrio anguillarum, illustrating the results using control (squares; buffer only), control 0.001 (circles), TDA (triangles), and TDA 0.001 (inverted triangles), as described in Example 10. V. anguillarium was exposed to 5 ug TDS per ml (3× MIC) for 90 minutes, after which the cells were washed and suspended in fresh nutrient broth. […] The results, as set forth in the graph of FIG. 13 indicate that the activity of TDA is bactericidal for this bacterial species, not simply bacteristatic.

Vibrio anguillarium = assay: Minimal Inhibitory Concentration (MIC) of TDA against Vibrio anguillarium; type: cell-based; conditions: FIG. 12
From the text: FIG. 12 is a graph showing the efficacy of TDA against Vibrio anguillarum, as described in Example 10.

[3] = system: Mycobacterium tuberculosis strain H37Rv; assay: Minimal Inhibitory Concentration (MIC) of TDA against Mycobacterium tuberculosis; type: cell-based
From the text: Against Mycobacterium tuberculosis strain H37Rv

[4] = system: Methicillin-resistant Staphylococcus aureus (MRSA) strain USA300; assay: Minimal Inhibitory Concentration (MIC) of TDA against MRSA; type: cell-based
From the text: Against Methicillin-resistant Staphylococcus aureus (MRSA) strain USA300

O=C(O)c1c(=O)cccc2ssc12 [TDA, tropodithietic acid]
Time until V. anguillarium stopped swimming (V. anguillarium [1]): ≤ 70 s | Character of activity (bactericidal vs bacteristatic) (V. anguillarium [2]): bactericidal | Growth of exposed cells after washing and suspension in fresh nutrient broth (V. anguillarium [2]; control cells exposed to buffer grew normally): failed to grow | MIC (Vibrio anguillarium): 1.5 µg/mL (≈ 7.07 µM) | Result in words: killing of V. anguillarium (Vibrio anguillarium): kills | Result in words: killing of M. tuberculosis [3]: kills | MIC ([3]; M. tuberculosis strain H37Rv): 7.8 µg/mL (≈ 36.7 µM) | MIC [4]: 40 µg/mL (≈ 188 µM) | Result in words: killing of MRSA [4]: kills
